Measured values from patent US11981686B2, “Urea compound having substituent” (DAIICHI SANKYO COMPANY, LIMITED, priority 2019, dated 2024).

Target: SIRT6 enzyme (Homo sapiens, UniProt Q8N6T7)
Assay: Measurement of deacetylation activity (SIRT6, AlphaLISA, H3K9(Ac) peptide)
Assay type: biochemical
Conditions: SIRT6 25 ng/mL, H3K9(Ac) biotin peptide 2 nM, NAD 10 μM, room temperature 30 minutes, duplicate
Method in brief: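 Activation read as EC150, the concentration giving 150% activity relative to enzyme/no-enzyme DMSO controls, via variable-slope fit. Deacetylation of 2 nM biotinylated H3K9(Ac) peptide with 10 μM NAD+ by 25 ng/mL SIRT6 ran 30 min at room temperature, pH 8.0, then AlphaLISA detection of unmodified H3K9.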

Chain of SIRT6 enzyme (Q8N6T7 whole entry, species assumed): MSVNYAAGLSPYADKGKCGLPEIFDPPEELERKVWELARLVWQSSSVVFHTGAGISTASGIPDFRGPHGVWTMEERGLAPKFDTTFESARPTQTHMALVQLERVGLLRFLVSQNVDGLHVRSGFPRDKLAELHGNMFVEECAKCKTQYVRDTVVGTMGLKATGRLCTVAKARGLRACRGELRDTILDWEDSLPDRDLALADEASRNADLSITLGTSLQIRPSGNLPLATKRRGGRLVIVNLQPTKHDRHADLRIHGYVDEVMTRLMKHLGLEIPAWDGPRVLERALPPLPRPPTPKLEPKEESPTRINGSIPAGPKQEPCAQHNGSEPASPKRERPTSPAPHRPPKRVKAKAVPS

SMILES	EC150 (the concentration of the compound showing a relative enzyme activity of 150%) [μm]
CNC(=O)Nc1nc2c(s1)[C@@H]1COC[C@H](C2)N1c1nnc(-c2cccc(OC(C)C)c2)o1 [Example 122, N-methyl-N′-[(4S,8S)-10-(5-{3-[(propan-2-yl)oxy]phenyl}-1,3,4-oxadiazol-2-yl)-4,7,8,9-tetrahydro-5H-4,8-epiminooxocino[5,4-d][1,3]thiazol-2-yl]urea]	1.5
COc1cccc(-c2cc(N3[C@@H]4COC[C@H]3c3sc(NC(=O)N[C@@H]5CCOC5)nc3C4)no2)c1 [Example 164, N-{(4S,8S)-10-[5-(3-methoxyphenyl)-1,2-oxazol-3-yl]-4,7,8,9-tetrahydro-5H-4,8-epiminooxocino[5,4-d][1,3]thiazol-2-yl}-N′-[(3R)-oxolan-3-yl]urea]	2.6
O=C(Nc1nc2c(s1)[C@@H]1COC[C@H](C2)N1c1ncc(-c2cccc(OC(F)F)n2)o1)NC1(CO)CC1 [Example 181, N-[(4S,8S)-10-{5-[6-(difluoromethoxy)pyridin-2-yl]-1,3-oxazol-2-yl}-4,7,8,9-tetrahydro-5H-4,8-epiminooxocino[5,4-d][1,3]thiazol-2-yl]-N′-[1-(hydroxymethyl)cyclopropyl]urea]	0.53
CNC(=O)Nc1nc2c(s1)[C@@H]1CCC[C@H](C2)N1c1nc(-c2ccc(F)cc2)no1 (relative stereo) [Example 12, N-{(5R*,9S*)-10-[3-(4-fluorophenyl)-1,2,4-oxadiazol-5-yl]-4,5,6,7,8,9-hexahydro-5,9-epiminocycloocta[d][1,3]thiazol-2-yl}-N′-methylurea]	1.4
CNC(=O)Nc1nc2c(s1)C1CN(C(C)=O)CC(C2)N1c1ncc(-c2cccc(OC(F)F)n2)o1 (stereo not shown) [Example 128, N-(6-acetyl-10-{5-[6-(difluoromethoxy)pyridin-2-yl]-1,3-oxazol-2-yl}-4,5,6,7,8,9-hexahydro-4,8-epimino[1,3]thiazolo[5,4-d]azocin-2-yl)-N′-methylurea]	0.43
CC(C)NC(=O)Nc1nc2c(s1)[C@@H]1COC[C@H](C2)N1c1nnc(-c2cccc(C(=O)C3CC3)c2)o1 [Example 117, N-[(4S,8S)-10-{5-[3-(cyclopropanecarbonyl)phenyl]-1,3,4-oxadiazol-2-yl}-4,7,8,9-tetrahydro-5H-4,8-epiminooxocino[5,4-d][1,3]thiazol-2-yl]-N′-propan-2-ylurea]	1
C[C@H](CO)NC(=O)Nc1nc2c(s1)CN(c1nc(C3CCC(F)(F)CC3)no1)CC2 [Example 5, N-{5-[3-(4,4-difluorocyclohexyl)-1,2,4-oxadiazol-5-yl]-4,5,6,7-tetrahydro[1,3]thiazolo[5,4-c]pyridin-2-yl}-N′-[(2R)-1-hydroxypropan-2-yl]urea]	1.5
CNC(=O)Nc1nc2c(s1)[C@@H]1COC[C@H](C2)N1c1nnc(-c2cccc(OC(F)F)c2)o1 [Example 22, N-[(4S,8S)-10-{5-[3-(difluoromethoxy)phenyl]-1,3,4-oxadiazol-2-yl}-4,7,8,9-tetrahydro-5H-4,8-epiminooxocino[5,4-d][1,3]thiazol-2-yl]-N′-methylurea]	1.3
O=C(NCC(F)(F)F)Nc1nc2c(s1)C1COCC(C2)N1c1nnc(-c2cccc(C(=O)C3CC3)c2)o1 (stereo not shown) [Example 114]	2.4
CC(C)(O)CNC(=O)Nc1nc2c(s1)[C@@H]1COC[C@H](C2)N1c1cc(-c2ccc(F)cc2)on1 [Example 63, N-{(4S,8S)-10-[5-(4-fluorophenyl)-1,2-oxazol-3-yl]-4,7,8,9-tetrahydro-5H-4,8-epiminooxocino[5,4-d][1,3]thiazol-2-yl}-N′-(2-hydroxy-2-methylpropyl)urea]	2.3
C[C@H](CO)NC(=O)Nc1nc2c(s1)[C@@H]1COC[C@H](C2)N1c1nc2cc(Cl)ccc2o1 [Example 59, N-[(4S,8S)-10-(5-chloro-1,3-benzoxazol-2-yl)-4,7,8,9-tetrahydro-5H-4,8-epiminooxocino[5,4-d][1,3]thiazol-2-yl]-N′-[(2R)-1-hydroxypropan-2-yl]urea]	0.44
COc1nc(-c2cnc(N3[C@@H]4COC[C@H]3c3sc(NC(=O)N[C@H](C)CO)nc3C4)o2)ccc1C [Example 193, N-[(2R)-1-hydroxypropan-2-yl]-N′-{(4S,8S)-10-[5-(6-methoxy-5-methylpyridin-2-yl)-1,3-oxazol-2-yl]-4,7,8,9-tetrahydro-5H-4,8-epiminooxocino[5,4-d][1,3]thiazol-2-yl}urea]	1.8
CC(C)(O)CNC(=O)Nc1nc2c(s1)[C@@H]1COC[C@H](C2)N1c1nc2cc(C(F)F)ccc2o1 [Example 53, N-{(4S,8S)-10-[5-(difluoromethyl)-1,3-benzoxazol-2-yl]-4,7,8,9-tetrahydro-5H-4,8-epiminooxocino[5,4-d][1,3]thiazol-2-yl}-N′-(2-hydroxy-2-methylpropyl)urea]	0.29
CNC(=O)Nc1nc2c(s1)[C@H]1CN(CCO)C[C@@H](C2)N1c1nc(-c2ccc(F)cc2)no1 [Example 127, N-[(4R,8R)-10-[3-(4-fluorophenyl)-1,2,4-oxadiazol-5-yl]-6-(2-hydroxyethyl)-4,5,6,7,8,9-hexahydro-4,8-epimino[1,3]thiazolo[5,4-d]azocin-2-yl]-N′-methylurea]	2.1
O=C(Nc1nc2c(s1)C1COCC(C2)N1c1nnc(-c2cccc(OC(F)F)c2)o1)N[C@H]1CCOC1 (stereo partly drawn) [Example 115, N-(10-{5-[3-(difluoromethoxy)phenyl]-1,3,4-oxadiazol-2-yl}-4,7,8,9-tetrahydro-5H-4,8-epiminooxocino[5,4-d][1,3]thiazol-2-yl)-N′-[(3S)-oxolan-3-yl]urea]	2
CNC(=O)Nc1nc2c(s1)CN(c1nc(C(C)OCC(F)(F)F)no1)CC2 (stereo not shown) [Example 4, N-methyl-N′-(5-{3-[1-(2,2,2-trifluoroethoxy)ethyl]-1,2,4-oxadiazol-5-yl}-4,5,6,7-tetrahydro[1,3]thiazolo[5,4-c]pyridin-2-yl)urea]	1.2
COc1ccc2oc(N3Cc4sc(NC(=O)NCC(C)(C)O)nc4CC3(C)C)nc2c1 [Example 190, N-(2-hydroxy-2-methylpropyl)-N′-[5-(5-methoxy-1,3-benzoxazol-2-yl)-6,6-dimethyl-4,5,6,7-tetrahydro[1,3]thiazolo[5,4-c]pyridin-2-yl]urea]	1.7
CNC(=O)Nc1nc2c(s1)C1CN(C(=O)OC)CC(C2)N1c1nc2cc(OC)ccc2o1 (stereo not shown) [Example 141, Methyl 10-(5-methoxy-1,3-benzoxazol-2-yl)-2-[(methylcarbamoyl)amino]-4,7,8,9-tetrahydro-4,8-epimino[1,3]thiazolo[5,4-d]azocine-6(5H)-carboxylate]	0.58
CC(OCC(F)(F)F)c1noc(N2CCc3nc(NC(=O)N[C@H](C)CO)sc3C2)n1 (stereo partly drawn) [Example 89, N-[(2R)-1-hydroxypropan-2-yl]-N′-(5-{3-[1-(2,2,2-trifluoroethoxy)ethyl]-1,2,4-oxadiazol-5-yl}-4,5,6,7-tetrahydro[1,3]thiazolo[5,4-c]pyridin-2-yl)urea]	2.9
COc1ccc2oc(N3[C@@H]4COC[C@H]3c3sc(NC(=O)NCC(C)(C)O)nc3C4)nc2c1 [Example 46, N-(2-hydroxy-2-methylpropyl)-N′-[(4S,8S)-10-(5-methoxy-1,3-benzoxazol-2-yl)-4,7,8,9-tetrahydro-5H-4,8-epiminooxocino[5,4-d][1,3]thiazol-2-yl]urea]	2.1
[2H]C([2H])([2H])Oc1ccc2oc(N3[C@@H]4COC[C@H]3c3sc(NC(=O)N[C@@H]5CCOC5)nc3C4)nc2c1 [Example 77, N-[(4S,8S)-10-{5-[(^2H3)methyloxy]-1,3-benzoxazol-2-yl}-4,7,8,9-tetrahydro-5H-4,8-epiminooxocino[5,4-d][1,3]thiazol-2-yl]-N′-[(3R)-oxolan-3-yl]urea]	0.79
O=C(Nc1nc2c(s1)CN(c1nc(C3(C(F)(F)F)CC3)no1)CC2)N[C@H]1C[C@H](O)C1 [Example 97, N-[(1r,3r)-3-hydroxycyclobutyl]-N′-(5-{3-[1-(trifluoromethyl)cyclopropyl]-1,2,4-oxadiazol-5-yl}-4,5,6,7-tetrahydro[1,3]thiazolo[5,4-c]pyridin-2-yl)urea]	1.3
O=C(Nc1nc2c(s1)C1COCC(C2)N1c1nc(-c2ccc(F)cc2)no1)N[C@H]1C[C@H](CO)C1 (stereo partly shown) [Example 84, N-{10-[3-(4-fluorophenyl)-1,2,4-oxadiazol-5-yl]-4,7,8,9-tetrahydro-5H-4,8-epiminooxocino[5,4-d][1,3]thiazol-2-yl}-N′-[(1r,3r)-3-(hydroxymethyl)cyclobutyl]urea]	0.62
CNC(=O)Nc1nc2c(s1)C1CN(C(C)=O)CC(C2)N1c1nc2cc(F)ccc2o1 (stereo not shown) [Example 130, N-[6-acetyl-10-(5-fluoro-1,3-benzoxazol-2-yl)-4,5,6,7,8,9-hexahydro-4,8-epimino[1,3]thiazolo[5,4-d]azocin-2-yl]-N′-methylurea]	3.7
C[C@H](CO)NC(=O)Nc1nc2c(s1)CN(c1nccc(C3CCCOC3)n1)CC2 (stereo partly drawn) [Example 191, N-[(2R)-1-hydroxypropan-2-yl]-N′-{5-[4-(oxan-3-yl)pyrimidin-2-yl]-4,5,6,7-tetrahydro[1,3]thiazolo[5,4-c]pyridin-2-yl}urea]	1.2
